# From ChEMBL document CHEMBL1777797, “Macrocyclic lactams as potent Hsp90 inhibitors with excellent tumor exposure and extended biomarker activity” (Bioorg Med Chem Lett, 2011)
# Key:
# [1] = Solubility of the compound; format: physicochemical
# [2] = Half life in rat liver microsomes; format: ADME, Microsome
# [3] = target: Heat shock protein HSP90 (Homo sapiens, UniProt P07900+P08238); assay: Inhibition of HSP90 in human HCT-116 cells expressing V-Src-firefly luciferase fusion protein after 3 to 6 hrs; format: cell-based
# [4] = tested on: HCT-116; assay: Antiproliferative activity against human HCT116 cells; format: functional, cell-based
# [5] = Inhibition of HSP90 by fluorescence polarization assay
# [6] = tested on: T98G; assay: Antiproliferative activity against human T98G cells
# [7] = Plasma concentration human MDA-MB-361 xenograft in vivo model at 50 mg/kg, po measured at 6 hrs post dose; format: ADME, organism-based; set-up: dose 50 mg/kg, route oral
# [8] = tested on: A-375; assay: Antiproliferative activity against human A375 cells
# [9] = Antiproliferative activity against human U87MG cells; settings: u-87mg atcc
# [10] = Antiproliferative activity against human KB 8.5 cells
# [11] = Plasma concentration in human MDA-MB-361 xenograft in vivo model at 50 mg/kg, po measured at 24 hrs post dose; format: ADME, organism-based; set-up: dose 50 mg/kg, route oral
# [12] = tested on: A549; assay: Antiproliferative activity against human A549 cells
# [13] = tested on: DU-145; assay: Antiproliferative activity against human DU145 cells
# [14] = tested on: MDA-MB-361; assay: Antiproliferative activity against human MDA-MB-361 cells
# [15] = tested on: NCI-H1975; assay: Antiproliferative activity against human NCI-H1975 cells
# [16] = Antiproliferative activity against P-gp overexpressing human KBV1 cells; settings: kb-v1
# [17] = Drug level in tumor of human MDA-MB-361 xenograft in vivo model at 50 mg/kg, po measured at 24 hrs post dose; format: ADME, organism-based, Neoplasm; set-up: dose 50 mg/kg, route oral; settings: read-out: Drug uptake
# [18] = tested on: BT-474; assay: Antiproliferative activity against human BT474 cells
# [19] = tested on: KB; assay: Antiproliferative activity against human KB cells
# [20] = Drug level in tumor of human MDA-MB-361 xenograft in vivo model at 50 mg/kg, po measured at 6 hrs post dose; format: ADME, organism-based, Neoplasm; set-up: dose 50 mg/kg, route oral; settings: read-out: Drug uptake
# [21] = Antiproliferative activity against human WM266.4 cells; settings: wm 266-4
Compound,solubility [1] [µg/mL],half-life [2] [min],IC50 [3] [nM],EC50 [4] [nM],IC50 [5] [nM],further results
Cc1c2c(n3c1CCCNC[C@H](C)Nc1cc-3ccc1C(N)=O)CC(C)(C)CC2=O,> 100,,,,,
Cc1c2c(n3c1CCCN(C)C(=O)[C@H](C)Nc1cc-3ccc1C(N)=O)CC(C)(C)CC2=O,34,> 30,60,80,,
CC(=O)N1CCc2c(C)c3c(n2-c2ccc(C(N)=O)c(c2)N[C@@H](C)CC1)CC(C)(C)CC3=O,,,108,,111,
Cc1c2c(n3c1CCCN[C@H](C)CNc1cc-3ccc1C(N)=O)CC(C)(C)CC2=O,> 100,> 30,47,43,91,
Cc1c2c(n3c1CCN(C(=O)CN)CC[C@H](C)Nc1cc-3ccc1C(N)=O)CC(C)(C)CC2=O,,,917,1010,90,
Cc1c2c(n3c1CCN(C(=O)CCN)CC[C@H](C)Nc1cc-3ccc1C(N)=O)CC(C)(C)CC2=O,> 100,> 30,6183,4890,200,
Cc1c2c(n3c1CCN(C(=O)[C@@H](C)N)CC[C@H](C)Nc1cc-3ccc1C(N)=O)CC(C)(C)CC2=O,> 100,,,,119,
Cc1c2c(n3c1CCN(C(=O)[C@H](C)N)CC[C@H](C)Nc1cc-3ccc1C(N)=O)CC(C)(C)CC2=O,> 100,,,,,
CC(=O)NCC(=O)N1CCc2c(C)c3c(n2-c2ccc(C(N)=O)c(c2)N[C@@H](C)CC1)CC(C)(C)CC3=O,5,> 30,674,1550,140,
Cc1c2c(n3c1CCN(C(=O)CN(C)C)CC[C@H](C)Nc1cc-3ccc1C(N)=O)CC(C)(C)CC2=O,> 100,3,109,168,140,
CC(=O)N1CCCc2c(C)c3c(n2-c2ccc(C(N)=O)c(c2)N[C@@H](C)C1)CC(C)(C)CC3=O,69,11,111,194,219,
CC(=O)N1CCCc2c(C)c3c(n2-c2ccc(C(N)=O)c(c2)NC[C@H]1C)CC(C)(C)CC3=O,> 100,12,1159,1900,953,
Cc1c2c(n3c1CCCN(C(=O)CN(C)C)[C@H](C)CNc1cc-3ccc1C(N)=O)CC(C)(C)CC2=O,> 100,> 30,> 5000,3260,> 5000,
Cc1c2c(n3c1CCCN(C(=O)[C@@H](C)N)[C@H](C)CNc1cc-3ccc1C(N)=O)CC(C)(C)CC2=O,> 100,> 30,> 5000,> 5000,555,
Cc1c2c(n3c1CC(=O)NCCCNc1cc-3ccc1C(N)=O)CC(C)(C)CC2=O,,,,,6830,
Cc1c2c(n3c1CC(=O)NCC[C@H](C)Nc1cc-3ccc1C(N)=O)CC(C)(C)CC2=O,> 100,> 30,522,815,214,
Cc1c2c(n3c1CC(=O)N(C)CC[C@H](C)Nc1cc-3ccc1C(N)=O)CC(C)(C)CC2=O,> 100,> 30,160,247,156,
Cc1c2c(n3c1CC(=O)N(C(C)C)CC[C@H](C)Nc1cc-3ccc1C(N)=O)CC(C)(C)CC2=O,> 100,12,278,865,608,
COCCN1CC[C@H](C)Nc2cc(ccc2C(N)=O)-n2c(c(C)c3c2CC(C)(C)CC3=O)CC1=O,> 100,> 30,108,359,222,
Cc1c2c(n3c1CC(=O)N(CCN(C)C)CC[C@H](C)Nc1cc-3ccc1C(N)=O)CC(C)(C)CC2=O,> 100,> 30,249,330,191,
CC(=O)NCCN1CC[C@H](C)Nc2cc(ccc2C(N)=O)-n2c(c(C)c3c2CC(C)(C)CC3=O)CC1=O,> 100,> 30,> 5000,> 5000,407,
Cc1c2c(n3c1CCCNC(=O)[C@H](C)Nc1cc-3ccc1C(N)=O)CC(C)(C)CC2=O,> 100,> 30,79,,82,IC50 [6]: 42 nM; concentration at 6 h [7]: 146 ng/mL; IC50 [8]: 23 nM; IC50 [9]: 80 nM; IC50 [10]: 49 nM; concentration at 24 h [11]: 8 ng/mL; IC50 [12]: 23 nM; IC50 [13]: 45 nM; IC50 [14]: 111 nM; IC50 [15]: 47 nM; IC50 [16]: > 1000 nM; concentration at 24 h [17]: 1270 ng/g; IC50 [18]: 23 nM; IC50 [19]: 22 nM; concentration at 6 h [20]: 2130 ng/g; IC50 [21]: 92 nM
Cc1c2c(n3c1CCCNC(=O)[C@@H](C)Nc1cc-3ccc1C(N)=O)CC(C)(C)CC2=O,,,123,175,268,
Cc1c2c(n3c1CCCN(CCN)C(=O)[C@H](C)Nc1cc-3ccc1C(N)=O)CC(C)(C)CC2=O,> 100,,> 20000,> 20000,1180,
CC(=O)NCCN1CCCc2c(C)c3c(n2-c2ccc(C(N)=O)c(c2)N[C@@H](C)C1=O)CC(C)(C)CC3=O,> 100,> 30,15771,17900,240,
Cc1c2c(n3c1CCCNC(=O)C[C@H](C)Nc1cc-3ccc1C(N)=O)CC(C)(C)CC2=O,,,1842,3330,337,
